“And” between values parts separate entries of the source, which are not always exact repeats. Equal entries are not always repeated.
Key:
[1] = system: Oxyuranus scutellatus venom; assay: Snake venom study, Oxyuranus scutellatus severe neurotoxicity, topical treatment; format: in vivo; settings: individual mice #1-#4; in 80% DMSO/20% ethanol in <50% 2.5%/2.5% lidocaine/prilocaine cream +/- petrolatum cover
Description: Additional studies used historical controls from earlier studies with venom doses from same lots:
Oxyuranus scutellatus severe neurotoxicity and 3-(5′-benzyl-2′-carbamoyl-[1,1′-biphenyl]-3-yl)-2-methylpropanoic acid as the racemic mixture in 80% DMSO/20% ethanol in <50% 2.5%/2.5% lidocaine/prilocaine cream+/−petrolatum cover (1 each).

[2] = Varespladib DMSO/ethanol pad applied to simulated viper bite on the inventor's calf; format: in vivo, human; settings: 75 mg/mL in DMSO/ethanol, 2 mL on absorbent pad containing 4% lidocaine; patch applied 24 hours
Method: The free-acid of varespladib […] was dissolved at 100 mg/mL in DMSO, then diluted with ethanol to 75 mg/mL and 2 mL applied to an absorbent pad containing 4% lidocaine and applied to a simulated viper bite on the inventor's calf applied by penetration to 1 cm with 18 g hypodermic needles similar in depth to what would be experienced with a large viper's bite.

Compound	Cessation of breathing [1]	pain, discomfort or redness at wounded area [2]
CC(Cc1cccc(-c2cc(Cc3ccccc3)ccc2C(N)=O)c1)C(=O)O (racemic) [3-(5′-benzyl-2′-carbamoyl-[1,1′-biphenyl]-3-yl)-2-methylpropanoic acid]	64 min and 44 min and 104 min and 111 min	
CCc1c(C(=O)C(N)=O)c2c(OCC(=O)O)cccc2n1Cc1ccccc1 [varespladib]		no pain, discomfort or redness

Reference: patent US20240382452A1, “COMPOSITIONS AND DOSAGE FORMS FOR TOPICAL AND TRANSDERMAL DELIVERY OF ACTIVES AND METHODS OF USE” (priority 2021, published 2024)
